Assay results: US4073903A, “3-Desacetoxymethyl-3- 5'(1-methyltetrazolyl)thio!methyl-7- 1-(4-nitr oimidazolyl)acetyl!aminocephalosporanic acid” (Pierrel S.p.A., priority 1975, dated 1978)
Values after ≈ are worked out from the molar mass of the structure shown. Where a name gives a salt, the structure may show the parent alone. Read-outs that look alike come from different tables or passages of the source.

Tests used:
Brucella suis = assay: microbe, parasite or virus in culture; assay type: cell-based; settings: 24 h, read-out: Minimum inhibitory concentration (MIC)
Streptococcus uberis = assay: MIC, twofold serial broth dilution (Table I); assay type: cell-based; settings: ATCC9927, strain ATCC 9927, Todd Hewitt Broth, 37° C, 24 hours, read-out: Minimum inhibitory concentration (MIC)
Shigella dysenteriae = assay: MIC, twofold serial broth dilution (Table I); assay type: cell-based; settings: 24 h, read-out: Minimum inhibitory concentration (MIC)
Streptococcus faecalis = assay: MIC, twofold serial broth dilution (Table I); assay type: cell-based; settings: Enterococcus faecalis; strain ISM 66/54; Tryptose Phosphate Broth; 37° C, 24 hours; read-out: Minimum inhibitory concentration (MIC)
Salmonella heidelberg = assay: MIC against Ampicillin-resistant clinical isolates, broth dilution test (Table IV); settings: Salmonella enterica, 24 h, read-out: Minimun inhibitory concentration (MIC)
Streptococcus mitis = assay: MIC, twofold serial broth dilution (Table I); assay type: cell-based; settings: ATCC9895, strain ATCC 9895 Ty V, Todd Hewitt Broth, 37° C, 24 hours, read-out: Minimum inhibitory concentration (MIC)
Proteus morganii = assay: MIC, twofold serial broth dilution (Table I); assay type: cell-based; settings: Morganella morganii; strain ISM-LRP 18; Mueller Hinton Broth; 37° C, 24 hours; read-out: Minimum inhibitory concentration (MIC)
Escherichia coli [1] = assay: Treatment of mice systemically infected with Escherichia coli (Table V); settings: in Mus musculus, 168 h, read-out: ED50 per treatment
[2] = test system: wide spectrum of microorganisms both Gram-positive and Gram-negative; assay: In vitro antimicrobial activity (overall statement); assay type: cell-based
Salmonella wien = assay: MIC against Ampicillin-resistant clinical isolates, broth dilution test (Table IV); settings: Salmonella enterica, 24 h
Solubility = assay type: physicochemical
Citrobacter freundii = assay: MIC, twofold serial broth dilution (Table I); assay type: cell-based
Brucella abortus = assay: microbe, parasite or virus in culture; assay type: cell-based; settings: 24 h, read-out: Minimum inhibitory concentration (MIC)
Staphylococcus aureus = assay: MIC, twofold serial broth dilution (Table I); assay type: cell-based; settings: 24 h, 37° C, read-out: Minimum inhibitory concentration (MIC)
Klebsiella pneumoniae [3] = settings: in Mus musculus, 168 h, read-out: ED50 per treatment
Pseudomonas aeruginosa = assay: MIC, twofold serial broth dilution (Table I); assay type: cell-based; settings: strain ISM-LRP 9, Tryptose Phosphate Broth, 37° C, 24 hours, read-out: Minimum inhibitory concentration (MIC)
[4] = test system: Enterobacter liquefaciens; assay: MIC, twofold serial broth dilution (Table I); assay type: cell-based; settings: strain ISM 65/33, Tryptose Phosphate Broth, 37° C, 24 hours, read-out: Minimum inhibitory concentration (MIC)
Proteus mirabilis = assay: MIC, twofold serial broth dilution (Table I); assay type: cell-based; settings: 37° C, 24 hours, read-out: Minimum inhibitory concentration (MIC)
Salmonella essen = assay: MIC against Ampicillin-resistant clinical isolates, broth dilution test (Table IV); settings: Salmonella enterica, 24 h, read-out: Minimun inhibitory concentration (MIC)
Enterobacter cloacae = assay: MIC, twofold serial broth dilution (Table I); assay type: cell-based; settings: strain ISM 71/32, Tryptose Phosphate Broth, 37° C, 24 hours, read-out: Minimum inhibitory concentration (MIC)
[5] = test system: systemically infected mice; assay: In vivo activity in systemically infected mice (overall statement); design: species or system Charles River CD 1 female mice; settings: treatment of systemically infected mice
Escherichia coli [6] = assay: MIC against clinical isolates, broth dilution test (Table III); settings: for MIC: Escherichia coli, 24 h
Arizona sp. = assay: MIC, twofold serial broth dilution (Table I); assay type: cell-based; settings: strain ISM 67/9; Tryptose Phosphate Broth; 37° C, 24 hours; read-out: Minimum inhibitory concentration (MIC)
Klebsiella pneumoniae [7] = assay: MIC, twofold serial broth dilution (Table I); assay type: cell-based; settings: strain ISM 68/67' 370 V', Tryptose Phosphate Broth, 37° C, 24 hours, read-out: Minimum inhibitory concentration (MIC)
Proteus rettgeri = assay: MIC, twofold serial broth dilution (Table I); assay type: cell-based; settings: Providencia rettgeri; strain ISM-LRP 21; Mueller Hinton Broth; 37° C, 24 hours; read-out: Minimum inhibitory concentration (MIC)
Streptococcus bovis = assay: MIC, twofold serial broth dilution (Table I); assay type: cell-based; settings: Streptococcus equinus, ATCC15351; strain ATCC 15351; Todd Hewitt Broth; 37° C, 24 hours; read-out: Minimum inhibitory concentration (MIC)
Serratia marcescens = assay: MIC, twofold serial broth dilution (Table I); assay type: cell-based; settings: strain ISM 68/189, Mueller Hinton Broth, 37° C, 24 hours, read-out: Minimum inhibitory concentration (MIC)
Pasteurella multocida = assay: MIC, twofold serial broth dilution (Table I); assay type: cell-based; settings: ATCC6588, strain ATCC 6588, Tryptose Broth, 37° C, 24 hours, read-out: Minimum inhibitory concentration (MIC)
Salmonella typhi = assay: MIC, twofold serial broth dilution (Table I); assay type: cell-based; settings: Salmonella enterica, 24 h, read-out: Minimum inhibitory concentration (MIC)
Escherichia coli [8] = assay: MIC, twofold serial broth dilution (Table I); assay type: cell-based; settings: ATCC19138, strain ATCC 19138 0 group 6, Tryptose Phosphate Broth, 37° C, 24 hours, read-out: Minimum inhibitory concentration (MIC)
Klebsiella pneumoniae [9] = assay: MIC against clinical isolates, broth dilution test (Table II); settings: for MIC: Klebsiella pneumoniae, 24 h
Diplococcus pneumoniae = assay: MIC, twofold serial broth dilution (Table I); assay type: cell-based; settings: Streptococcus pneumoniae; strain Ty XXVII-LRP 53; Todd Hewitt Broth; 37° C, 24 hours; read-out: Minimum inhibitory concentration (MIC)
Text: (§1) In Table I the minimum inhibitory concentrations (MIC) of P-75123 against a variety of Gram-positive and Gram-negative bacteria are listed.

Shigella sonnei = assay: MIC, twofold serial broth dilution (Table I); assay type: cell-based; settings: strain ISM-LRP 5, Tryptose Phosphate Broth, 37° C, 24 hours, read-out: Minimum inhibitory concentration (MIC)
Text: as §1

Shigella flexneri = assay: MIC, twofold serial broth dilution (Table I); assay type: cell-based; settings: strain ISM-LRP 40, Tryptose Phosphate Broth, 37° C, 24 hours, read-out: Minimum inhibitory concentration (MIC)
Text: as §1

Stability as a solid = assay type: physicochemical
[10] = read-out: Minimum inhibitory concentration (MIC)

For `Cn1nnnc1SCC1=C(C(=O)O)N2C(=O)C(NC(=O)Cn3cnc([N+](=O)[O-])c3)C2SC1` (stereo not shown) [P-75123, 7-1-(1H-4-nitroimidazolyl)acetyl!amino-3-5-(1H-1-methyltetrazolyl)thio!methyl-3-cephem-4-carboxylic acid], the MIC (Brucella suis) was 12.5 µg/mL (≈ 26 µM), the MIC (Streptococcus uberis) was 0.097 µg/mL (≈ 0.201 µM) and the MIC (Shigella dysenteriae) was 0.78 µg/mL (≈ 1.62 µM). For the same compound, the MIC (Streptococcus faecalis) was 100 µg/mL (≈ 208 µM), the MIC (Salmonella heidelberg) was 1.56 µg/mL (≈ 3.24 µM) and the MIC (Streptococcus mitis) was 0.195 µg/mL (≈ 0.405 µM). The MIC (Proteus morganii) was 50 µg/mL (≈ 104 µM), the ED50 (Escherichia coli [1]) was 35 mg/kg and the “"in vitro" antimicrobial activity” value [2] was “high antimicrobial activity”. It also gave an MIC (Salmonella wien; read-out: Minimun inhibitory concentration (MIC), Ampicillin-resistant clinical isolate LRP 138) of 3.12 µg/mL (≈ 6.48 µM), an MIC (Salmonella wien; read-out: Minimun inhibitory concentration (MIC), Ampicillin-resistant clinical isolate LRP 140) of 6.25 µg/mL (≈ 13 µM) and an MIC (Salmonella wien; read-out: Minimun inhibitory concentration (MIC), Ampicillin-resistant clinical isolate LRP 141) of 6.25 µg/mL (≈ 13 µM). For the same compound, the Solubility in dimethylsulfoxide (Solubility; crystals, dimethylsulfoxide) was “soluble in dimethylsulfoxide”, the Solubility in water (Solubility; crystals, water) was “practically insoluble in water” and the MIC (Citrobacter freundii; 24 h, read-out: Minimum inhibitory concentration (MIC), strain ISM 65/74, Tryptose Phosphate Broth, 37° C) was 1.56 µg/mL (≈ 3.24 µM). It also gave an MIC (Citrobacter freundii; strain ISM 69/30, Tryptose Phosphate Broth, 37° C, 24 hours, read-out: Minimum inhibitory concentration (MIC)) of 0.78 µg/mL (≈ 1.62 µM), an MIC (Brucella abortus) of 25 µg/mL (≈ 51.9 µM) and an MIC (Staphylococcus aureus; strain ATTC 653P, Tryptose Phosphate Broth) of 0.195 µg/mL (≈ 0.405 µM). For the same compound, the MIC (Staphylococcus aureus; strain ISM 72/10, Tryptose Phosphate Broth) was 0.78 µg/mL (≈ 1.62 µM), the ED50 (Klebsiella pneumoniae [3]) was 49 mg/kg and the MIC (Pseudomonas aeruginosa) was > 100 µg/mL. The MIC [4] was 100 µg/mL (≈ 208 µM), the MIC (Proteus mirabilis; ATCC10005, strain ATCC 10005, Mueller Hinton Broth) was 3.12 µg/mL (≈ 6.48 µM) and the MIC (Proteus mirabilis; strain ISM 66/53, Mueller Hinton Broth) was 3.12 µg/mL (≈ 6.48 µM). The MIC (Salmonella essen) was 1.56 µg/mL (≈ 3.24 µM), the MIC (Enterobacter cloacae) was > 100 µg/mL and the “activity "in vivo"” value [5] was “very good activity”. For the same compound, the MIC (Escherichia coli [6]; [10]) was 1.56 µg/mL (≈ 3.24 µM), the MIC (Escherichia coli [6]; read-out: Minimum inhibitory concentration (MIC), clinical isolate LRP 87) was 3.12 µg/mL (≈ 6.48 µM) and the MIC (Escherichia coli [6]; read-out: Minimum inhibitory concentration (MIC), clinical isolate LRP 110) was 0.78 µg/mL (≈ 1.62 µM). The MIC (Escherichia coli [6]; read-out: Minimum inhibitory concentration (MIC), clinical isolate LRP 143) was 0.78 µg/mL (≈ 1.62 µM), the MIC (Escherichia coli [6]; read-out: Minimum inhibitory concentration (MIC), clinical isolate LRP 152) was 50 µg/mL (≈ 104 µM) and the MIC (Escherichia coli [6]; read-out: Minimum inhibitory concentration (MIC), clinical isolate LRP 159) was 0.78 µg/mL (≈ 1.62 µM). The “Minimum inhibitory concentration (MIC)” value (Escherichia coli [6]; clinical isolate LRP 96) was 1.56 µg/mL (≈ 3.24 µM), the “Minimum inhibitory concentration (MIC)” value (Escherichia coli [6]; clinical isolate LRP 150) was 1.56 µg/mL (≈ 3.24 µM) and the “Minimum inhibitory concentration (MIC)” value (Escherichia coli [6]; clinical isolate LRP 151) was 1.56 µg/mL (≈ 3.24 µM). The “Minimum inhibitory concentration (MIC)” value (Escherichia coli [6]; clinical isolate LRP 154) was 1.56 µg/mL (≈ 3.24 µM), the “Minimum inhibitory concentration (MIC)” value (Escherichia coli [6]; clinical isolate LRP 155) was 1.56 µg/mL (≈ 3.24 µM) and the “Minimum inhibitory concentration (MIC)” value (Escherichia coli [6]; clinical isolate LRP 156) was 1.56 µg/mL (≈ 3.24 µM). The “Minimum inhibitory concentration (MIC)” value (Escherichia coli [6]; clinical isolate LRP 158) was 1.56 µg/mL (≈ 3.24 µM), the “Minimum inhibitory concentration (MIC)” value (Escherichia coli [6]; clinical isolate LRP 163) was 1.56 µg/mL (≈ 3.24 µM) and the MIC (Arizona sp.) was 0.78 µg/mL (≈ 1.62 µM). The MIC (Klebsiella pneumoniae [7]) was 0.78 µg/mL (≈ 1.62 µM), the MIC (Proteus rettgeri) was 25 µg/mL (≈ 51.9 µM) and the MIC (Streptococcus bovis) was 0.049 µg/mL (≈ 0.102 µM). It also gave an MIC (Serratia marcescens) of 100 µg/mL (≈ 208 µM), an MIC (Pasteurella multocida) of 0.39 µg/mL (≈ 0.81 µM) and an MIC (Salmonella typhi) of 0.78 µg/mL (≈ 1.62 µM). The MIC (Escherichia coli [8]) was 0.78 µg/mL (≈ 1.62 µM), the MIC (Klebsiella pneumoniae [9]; [10]) was 1.56 µg/mL (≈ 3.24 µM) and the MIC (Klebsiella pneumoniae [9]; read-out: Minimum inhibitory concentration (MIC), clinical isolate LRP 129) was 0.39 µg/mL (≈ 0.81 µM). For the same compound, the MIC (Klebsiella pneumoniae [9]; read-out: Minimum inhibitory concentration (MIC), clinical isolate LRP 130) was 6.25 µg/mL (≈ 13 µM), the MIC (Klebsiella pneumoniae [9]; read-out: Minimum inhibitory concentration (MIC), clinical isolate LRP 131) was 3.12 µg/mL (≈ 6.48 µM) and the MIC (Klebsiella pneumoniae [9]; read-out: Minimum inhibitory concentration (MIC), clinical isolate LRP 132) was 0.39 µg/mL (≈ 0.81 µM). It also gave an MIC (Klebsiella pneumoniae [9]; read-out: Minimum inhibitory concentration (MIC), clinical isolate LRP 133) of 0.78 µg/mL (≈ 1.62 µM), an MIC (Klebsiella pneumoniae [9]; read-out: Minimum inhibitory concentration (MIC), clinical isolate LRP 135) of 3.12 µg/mL (≈ 6.48 µM) and an MIC (Klebsiella pneumoniae [9]; read-out: Minimum inhibitory concentration (MIC), clinical isolate LRP 136) of 3.12 µg/mL (≈ 6.48 µM). For the same compound, the MIC (Klebsiella pneumoniae [9]; read-out: Minimum inhibitory concentration (MIC), clinical isolate LRP 137) was 0.78 µg/mL (≈ 1.62 µM), the “Minimum inhibitory concentration (MIC)” value (Klebsiella pneumoniae [9]; clinical isolate LRP 134) was 1.56 µg/mL (≈ 3.24 µM) and the MIC (Diplococcus pneumoniae) was 0.097 µg/mL (≈ 0.201 µM). The MIC (Shigella sonnei) was 1.56 µg/mL (≈ 3.24 µM) and the MIC (Shigella flexneri) was 0.78 µg/mL (≈ 1.62 µM).

In the case of `Cn1nnnc1SCC1=C(C(=O)O)N2C(=O)C(NC(=O)Cn3cnc([N+](=O)[O-])c3)C2SC1` (stereo not shown) [sodium salt], the solubility (Solubility; sodium salt, water) is reported as ~500 mg/mL and the Stability (Stability as a solid) is reported as “stable as a solid”.
